What follows are compounds tested on HCT116 colon cancer cells (assay: KSP Cellular Assay (percent of cells staining positive for Phos-Histone H3 / Phos-MPM2)). Details: Homo sapiens, HCT-116, 16 h, Table 101; HCT116 cells, 16 hours with drug; read-out: ED50 (nM) Range.
Format: cell-based
Description: HCT116 colon cancer cells were grown in DMEM:F12 media with 10% heat inactivated FBS at 37 degrees with 5% CO2. Cells were plated at 7,500 cells per well in PDL coated 384-well tissue culture plates. 6 hours later media was removed and new media containing drug was added. Cells were incubated with drug for 16 hours. All further steps were performed at room temperature in the dark. Cells were fixed with 25 ul/well Prefer fixation solution plus 250 nM Hoechst dye and incubated for 30 minutes. The fixation solution was removed and cells were washed with PBS. Cells were then permeabilized with 25 ul/well 0.2% Triton-X in PBS and incubated for 10 minutes. Cells were washed with PBS and then incubated with 25 ul/well PBS containing 3% FBS for 30 minutes. Cells were then stained overnight at 4 degrees with 25 ul/well antibody solution in PBS plus 3% FBS. Antibodies used were Phos-Histone H3 (ser10)-Alexa Flur 488 Conjugate and Phos-MPM2 Texas Red Conjugate. Cells were washed with PBS and then immunofluorescence images captured with HT Pathway microscope. The percent of cells staining positive was calculated and EC50 values for the compounds of the invention that were tested were determined using Excel XLfit.
EC50 Determinations: Dose-response curves were plotted from inhibition data generated each in duplicate, from 8 point serial dilutions of inhibitory compounds. Concentration of compound was plotted against enzyme activity (OD reading). To generate EC50 values, the dose-response curves were then fitted to a standard sigmoidal curve and EC50 values were derived by nonlinear regression analysis.

Row | SMILES | EC50 [nM]
1 | CC(=O)N1N=C(c2cc(F)ccc2F)SC12CCS(=O)(=O)c1ccccc12 (centres unmarked) [compound 109] | > 1000
2 | CC(=O)N1N=C(c2cc(F)ccc2F)SC12CCCc1ncccc12 (centres unmarked) [compound 123] | > 1000
3 | CC(=O)N1N=C(c2cc(F)ccc2F)SC12CCCc1cccnc12 (centres unmarked) [compound 124] | > 1000

Same assay, conditions: Homo sapiens, HCT-116, 16 h, Table 401; HCT116 cells, 16 hours with drug; read-out: ED50 (nM) Range

Row | SMILES | EC50 [nM]
4 | CO[C@@H](C)C(=O)N1N=C(c2cc(F)ccc2F)SC12CCOc1ccccc12 (some centres unmarked) [compound 435] | 500 to 1000
5 | O=C(CC1CCNCC1)N1N=C(c2cc(F)ccc2F)SC12CCOc1ccccc12 (centres unmarked) [compound 486] | 500 to 1000
6 | O=C(CC1CCNCC1)N1N=C(c2cc(F)ccc2F)SC12CCc1ccccc12 (centres unmarked) [compound 447] | ≤ 500
7 | CNCCCC(=O)N1N=C(c2cc(F)ccc2F)SC12CCOc1ccccc12 (centres unmarked) [compound 489] | ≤ 500
8 | CCC(=O)N1N=C(c2cc(F)ccc2F)SC12CCOc1ccccc12 (centres unmarked) [compound 465] | ≤ 500
9 | O=C(CCCN1CCCCC1)N1N=C(c2cc(F)ccc2F)SC12CCOc1ccccc12 (centres unmarked) [compound 494] | ≤ 500
10 | O=C(C1CCNCC1)N1N=C(c2cc(F)ccc2F)SC12CCSc1ccccc12 (centres unmarked) [compound 406] | > 1000
11 | O=C(CCC1CCCCN1)N1N=C(c2cc(F)ccc2F)SC12CCc1ccccc12 (centres unmarked) [compound 461] | > 500
12 | O=C(CCCN1CCOCC1)N1N=C(c2cc(F)ccc2F)SC12CCOc1ccccc12 (centres unmarked) [compound 495] | > 500
13 | NCC(=O)N1N=C(c2cc(F)ccc2F)SC12CCOc1ccccc12 (centres unmarked) [compound 469] | > 1000
14 | O=C(N1N=C(c2cc(F)ccc2F)SC12CCOc1ccccc12)C(F)(F)F (centres unmarked) [compound 470] | > 1000
15 | N[C@H]1C[C@H](C(=O)N2N=C(c3cc(F)ccc3F)SC23CCOc2ccccc23)C1 (some centres unmarked) [compound 500] | > 500
16 | NCCCC(=O)N1N=C(c2cc(F)ccc2F)S[C@@]12CCOc1ccccc12 [compound 459] | > 500
17 | O=C(C1CC1)N1N=C(c2cc(F)ccc2F)SC12CCOc1ccccc12 (centres unmarked) [compound 464] | 500 to 1000
18 | N[C@H]1CC[C@@H](C(=O)N2N=C(c3cc(F)ccc3F)SC23CCOc2ccccc23)C1 (some centres unmarked) [compound 476] | > 500
19 | NC1CCC(C(=O)N2N=C(c3cc(F)ccc3F)SC23CCc2ccccc23)CC1 (centres unmarked) [compound 439] | 500 to 1000
20 | COCCOCC(=O)N1N=C(c2cc(F)ccc2F)SC12CCOc1ccccc12 (centres unmarked) [compound 472] | > 1000
21 | N[C@H](C(=O)N1N=C(c2cc(F)ccc2F)SC12CCSc1ccccc12)C1CC1 (some centres unmarked) [compound 415] | > 1000
22 | O=C(C(F)F)N1N=C(c2cc(F)ccc2F)SC12CCOc1ccccc12 (centres unmarked) [compound 471] | ≤ 500
23 | COC(C)C(=O)N1N=C(c2cc(F)ccc2F)SC12CCc1ccccc12 (centres unmarked) [compound 441] | ≤ 500
24 | O=C(Cc1ccncc1)N1N=C(c2cc(F)ccc2F)SC12CCOc1ccccc12 (centres unmarked) [compound 485] | ≤ 500
25 | N[C@H]1CC[C@H](C(=O)N2N=C(c3cc(F)ccc3F)SC23CCOc2ccccc23)CC1 (some centres unmarked) [compound 480] | > 500
26 | NCCCC(=O)N1N=C(c2cc(F)ccc2F)SC12CCOc1ccccc12 (centres unmarked) [compound 434] | ≤ 500
27 | O=C(CCCN1CCCC1)N1N=C(c2cc(F)ccc2F)SC12CCc1ccccc12 (centres unmarked) [compound 454] | ≤ 500
28 | O=C(CCC1CCCNC1)N1N=C(c2cc(F)ccc2F)SC12CCc1ccccc12 (centres unmarked) [compound 448] | > 1000
29 | O=C(CCCN1CCCC1)N1N=C(c2cc(F)ccc2F)SC12CCOc1ccccc12 (centres unmarked) [compound 492] | ≤ 500
30 | O=C([C@@H]1CCCN1)N1N=C(c2cc(F)ccc2F)SC12CCSc1ccccc12 (some centres unmarked) [compound 413] | > 1000
31 | CN(C)CCCC(=O)N1N=C(c2cc(F)ccc2F)SC12CCc1ccccc12 (centres unmarked) [compound 438] | ≤ 500
32 | N[C@H](C(=O)N1N=C(c2cc(F)ccc2F)SC12CCCc1ccccc12)C1CC1 (some centres unmarked) [compound 418] | > 1000
33 | NCCC(=O)N1N=C(c2cc(F)ccc2F)SC12CCc1ccccc12 (centres unmarked) [compound 442] | ≤ 500

Same assay, conditions: Homo sapiens, HCT-116, 16 h, Table 601; HCT116 cells, 16 hours with drug; read-out: EC50 (nM) Range

Row | SMILES | EC50 [nM]
34 | CN(C)C(=O)N1N=C(c2cc(F)ccc2F)SC12CCCc1sccc12 (centres unmarked) [compound 603] | > 1000

Same assay, conditions: Homo sapiens, HCT-116, 16 h, Table 701; HCT116 cells, 16 hours with drug; read-out: EC50 (nM) Range

Row | SMILES | EC50 [nM]
35 | CCN1N=C(c2cc(F)ccc2F)SC12CCOc1ccccc12 (centres unmarked) [compound 703] | > 1000

Same assay, conditions: Homo sapiens, HCT-116, 16 h, Table 801; HCT116 cells, 16 hours with drug; read-out: EC50 (nM) Range

Row | SMILES | EC50 [nM]
36 | CC(=O)N1N=C(c2cc(F)ccc2F)S[C@@]12c1cc(F)c(F)cc1OC[C@H]2CCN [compound 807] | ≤ 500
37 | CC(=O)N1N=C(c2cc(F)ccc2F)S[C@]12c1cc(F)ccc1OC[C@@H]2CCN [compound 802] | > 1000
38 | CC(=O)N1N=C(c2cc(F)ccc2F)S[C@]12c1cc(F)ccc1OC[C@H]2CCN [compound 803] | ≤ 500

Same assay, conditions: Homo sapiens, HCT-116, 16 h, Table 1201 (Example 1201); HCT116 cells, 16 hours with drug; read-out: EC50 (nM) Range

Row | SMILES | EC50 [nM]
39 | CC(=O)N1N=C(c2cc(F)ccc2F)S[C@@]12c1ccccc1OC[C@H]2CCNC(C)C [compound 1203] | ≤ 500

Same assay, conditions: Homo sapiens, HCT-116, 16 h, table of Example 901; HCT116 cells, 16 hours with drug; read-out: EC50 (nM) Range

Row | SMILES | EC50 [nM]
40 | CC(=O)N1N=C(c2cc(F)ccc2F)S[C@]12c1ccccc1C[C@H]2CC#N [compound 906] | ≤ 500
41 | CC(=O)N1N=C(c2cc(F)ccc2F)S[C@@]12c1ccccc1OC[C@H]2CC#N [compound 903] | ≤ 500
42 | CC(=O)N1N=C(c2cc(F)ccc2F)S[C@@]12c1ccccc1OC[C@@H]2CC#N [compound 902] | ≤ 500

Same assay, conditions: Homo sapiens, HCT-116, 16 h, table of Example 1001; HCT116 cells, 16 hours with drug; read-out: EC50 (nM) Range

Row | SMILES | EC50 [nM]
43 | CC(=O)N1N=C(c2cc(F)ccc2F)S[C@]12c1ccccc1OC[C@H]2CCCO (single isomer, unassigned) [compound 1002] | ≤ 500

Same assay, conditions: Homo sapiens, HCT-116, 16 h, table of Example 1801 (headed Table 1201); HCT116 cells, 16 hours with drug; read-out: EC50 (nM) Range

Row | SMILES | EC50 [nM]
44 | CC(=O)N1N=C(c2cccc(F)c2)S[C@]12c1ccccc1OC[C@@H]2CCN [compound 1811] | > 1000
45 | CC(=O)N1N=C(c2cc(F)cc(F)c2)S[C@@]12c1cc(F)ccc1OC[C@H]2CCN [compound 1821] | ≤ 500
46 | CC(=O)N1N=C(c2cccc(Cl)c2)S[C@]12c1ccccc1OC[C@@H]2CCN [compound 1813] | > 1000
47 | CC(=O)N1N=C(c2cccc(F)c2)S[C@@]12c1ccccc1OC[C@H]2CCN [compound 1810] | ≤ 500
48 | CC(=O)N1N=C(c2ccccc2)S[C@]12c1ccccc1OC[C@@H]2CCN [compound 1809] | > 1000
49 | CC(=O)N1N=C(c2cc(Cl)ccc2F)S[C@]12c1ccccc1OC[C@@H]2CCN [compound 1805] | > 1000
50 | CC(=O)N1N=C(c2cc(C(F)(F)F)ccc2F)S[C@]12c1ccccc1OC[C@@H]2CCN [compound 1807] | > 1000
51 | CC(=O)N1N=C(c2ccccc2F)S[C@@]12c1ccccc1OC[C@H]2CCN [compound 1802] | ≤ 500
52 | CC(=O)N1N=C(c2ccc(F)c(F)c2)S[C@@]12c1cc(F)ccc1OC[C@H]2CCN [compound 1820] | ≤ 500

Same assay, conditions: Homo sapiens, HCT-116, 16 h, table of Example 1901; HCT116 cells, 16 hours with drug; read-out: EC50 (nM) Range

Row | SMILES | EC50 [nM]
53 | CO[C@H](C)C(=O)N1N=C(c2cc(F)ccc2F)S[C@@]12c1cc(F)ccc1OC[C@H]2CCN [compound 1904] | ≤ 500
54 | CO[C@@H](C)C(=O)N1N=C(c2cc(F)ccc2F)S[C@]12c1cc(F)ccc1OC[C@@H]2CCN (single isomer, unassigned) [compound 1901] | > 1000

Same assay, conditions: Homo sapiens, HCT-116, 16 h, table of Example 2501; HCT116 cells, 16 hours with drug; read-out: EC50 (nM) Range

Row | SMILES | EC50 [nM]
55 | CC(=O)N1N=C(c2cc(F)ccc2F)S[C@]12c1ccccc1NC[C@@H]2CCO [compound 2501] | ≤ 500

Same assay, conditions: Homo sapiens, HCT-116, 16 h, table of Example 2701; HCT116 cells, 16 hours with drug; read-out: EC50 (nM) Range

Row | SMILES | EC50 [nM]
56 | CC(=O)N1N=C(c2cc(F)ccc2F)S[C@]12c1ccccc1NC[C@H]2CCN [compound 2701] | ≤ 500

Same assay, conditions: Homo sapiens, HCT-116, 16 h, table of Example 2801; HCT116 cells, 16 hours with drug; read-out: EC50 (nM) Range

Row | SMILES | EC50 [nM]
57 | CC(=O)N1N=C(c2cc(F)ccc2F)S[C@]12c1ccccc1NC[C@H]2CCN [compound 2801] | ≤ 500

Same assay, conditions: Homo sapiens, HCT-116; read-out: EC50 (nM) Range

Row | SMILES | EC50 [nM]
58 | C=CC[C@@H]1CNc2ccccc2[C@]12SC(c1cc(F)ccc1F)=NN2C(C)=O (single isomer, unassigned) [compound 3001] | ≤ 500

Same assay, conditions: Table 401; HCT116 cells, 16 hours with drug; read-out: ED50 (nM) Range

Row | SMILES | EC50 [nM]
59 | NC1CCC(C(=O)N2N=C(c3cc(F)ccc3F)SC23CCc2ccccc23)CC1 (centres unmarked) [compound 445] | > 1000

Reference: patent US8796460B2, “Compounds for inhibiting KSP kinesin activity” (Mercky Sharp & Dohme Corp., priority 2007, dated 2014)
